Measured values taken from article PMC10818380, “Triphenylphosphonium Analogs of Short Peptide Related to Bactenecin 7 and Oncocin 112 as Antimicrobial Agents” (Pharmaceutics, 2024).
Square brackets hold non-standard residues; d marks the D form. Peptide text beside a SMILES is read from it. * marks the point of attachment. X2 = c1ccc([P+](CCCCCCCCCCN*)(c2ccccc2)c2ccccc2)cc1; X1 = c1ccc([P+](CCN*)(c2ccccc2)c2ccccc2)cc1

Tests used:
[1] = test system: bacterial translation (E. coli S30 extract); assay: In vitro translation inhibition of firefly luciferase mRNA, E. coli S30 extract; type: biochemical; settings: 30 µM
Description: Briefly, in vitro-transcribed firefly luciferase mRNA (fluc) was translated using the E. coli S30 Extract System for Linear Templates (Promega, Madison, WI, USA). Reaction mixtures (with a 5 μL total volume) supplemented with 0.1 mM of a mixture of all canonical amino acids, 4 U of RiboLock RNase Inhibitor (Thermo Fisher Scientific, Waltham, MA, USA), and 0.1 mM of D-luciferin (Sigma-Aldrich, Burlington, MA, USA) were pre-incubated at RT for 5 min after the addition of the tested compounds at a final concentration of 30 µM. Then, 50 ng of the mRNA was added to each reaction tube, and the mixtures were immediately subjected to continuous chemiluminescence measurements using the VICTOR X5 Multilabel Plate Reader (PerkinElmer, Waltham, MA, USA) at 37 °C for 30 min. The maximal rates of the firefly luciferase (Fluc) accumulation were calculated using the OriginPro 7.5 software. The values were normalized to a positive control (0.3% DMSO, assigned a value of 100%).

[2] = test system: E. coli SQ171 ΔtolC (A2059G) and JW5503 (∆tolC) (KanS) ermC; assay: Antibacterial activity on agar plates, macrolide-resistant strains; type: cell-based; settings: Figure 3
Description: (§1) Antibiotic activity was also evaluated against the following strains: E. coli JW5503 ΔtolC (KanS) ermC, modified with the plasmid pKH80 [59], providing resistance to erythromycin due to the expression of ErmC methyltransferase; E. coli SQ171 ΔtolC transformed with the pAM552 plasmid; E. coli SQ171 ΔtolC modified with the pAM552 plasmid with A2059G substitution in the 23S rRNA; E. coli JW1052 ΔmdtH; E. coli JW0912 ΔompF; and E. coli JW0368 ΔsbmA [57]. The procedure was performed as described previously in [33]. In short, Petri dishes filled with LB solid medium containing a selective antibiotic and 1.5% agar were covered with the tested strains. After that, 1 µL of 10 mM water solutions of Bac(1–10), Bac(1–10, R/Y), Bac(1–10, R/Y)-Cn-TPP, TPP-C10-Bac(1–10, R/Y), and Onc112, LEV (25 μg/mL) in water, and ERY (5 mg/mL and 50 mg/mL) in DMSO were applied onto the agar plates. After overnight incubation at 37 °C, the plates were scanned using the ChemiDoc^TM Imagining System (Bio-Rad Laboratories, Hercules, CA, USA) in three channels (Cy2, Cy3, and Cy5). The obtained images were processed in the Image Lab^TM software (Version 6.0.1, Bio-Rad).

E. coli JW0368 ΔsbmA = assay: microbe, parasite or virus in culture; type: cell-based; settings: for MIC: E. coli ∆sbmA, 37 °C, 18 h; for difference of MIC values, E. coli ΔsbmA versus wild type: ratio of MIC values of Table 1
Description: The MIC values for Bac(1–10), Bac(1–10, R/Y), Bac(1–10, R/Y)-Cn-TPP, TPP-C10-Bac(1–10, R/Y), and Onc112 were determined via LB broth microdilution, as recommended by CLSI in the Methods for Dilution Antimicrobial Susceptibility Tests for Bacteria that Grow Aerobically, Approved Standard, 9th ed., CLSI document M07-A9, using in-house-prepared panels. The compounds were diluted in a 96-well microtiter plate to final concentrations ranging from 0.1 to 100 µM in a 200 µL aliquot of the bacterial suspension, followed by incubation at 37 °C for 18 h. The cell concentration was estimated according to the absorbance (A600). The measurements were performed with a VICTOR X5 Multilabel Plate Reader (PerkinElmer, Waltham, MA, USA). The following bacterial strains were used: E. coli BW25113, E. coli JW0368 ΔsbmA, B. subtilis 168, and B. subtilis CFR [39].

B. subtilis = assay: Membrane potential with fluorescent probe diS-C3-(5); type: cell-based; settings: diS-C3-(5) fluorescence
Description: The membrane potential of B. subtilis was assessed by measuring the fluorescence emitted by the potential-dependent probe, diS-C3-(5). Bacterial cells derived from the overnight culture of B. subtilis were inoculated into a fresh LB medium and allowed to grow for 24 h until reaching an optical density of 0.8 at 600 nm. Subsequently, the bacteria were subjected to a 20-fold dilution in a buffer comprising 100 mM of KCl and 10 mM of Tris, adjusted to a pH of 7.4. Fluorescence measurements were conducted at 670 nm (with excitation at 630 nm) using a Fluorat-02-Panorama fluorimeter manufactured by Lumex Instruments in St. Petersburg, Russia.

[3] = test system: E. coli ΔompF, E. coli ΔmdtH; assay: Antibacterial activity on agar plates, ΔompF and ΔmdtH strains versus wild type; type: cell-based; settings: Figure 4
Description: as §1

E. coli ΔsbmA = assay: Antibacterial activity on agar plates, ΔsbmA strain versus wild type; type: cell-based; settings: Figure 4B
Description: as §1

Row | Compound | inhibition of bacterial translation of firefly luciferase (Fluc) mRNA [1] | bacterial growth inhibition in macrolide-resistant E. coli strains [2] | MIC (E. coli JW0368 ΔsbmA) | comparison of MIC values, E. coli ΔsbmA versus wild type (E. coli JW0368 ΔsbmA; MIC values of Table 1) | effect on membrane potential of B. subtilis (B. subtilis; 1 µM) | growth inhibition of E. coli ΔompF and ΔmdtH compared with wild-type strain [3] | antibacterial activity on E. coli ΔsbmA compared with wild-type strain (E. coli ΔsbmA) | difference of MIC values, E. coli ΔsbmA versus wild type (E. coli JW0368 ΔsbmA) | effect on membrane potential of B. subtilis (B. subtilis; concentration not given)
1 | CC[C@H](C)[C@H](NC(=O)[C@H](CCCNC(=N)N)NC(=O)[C@@H](N)CCCNC(=N)N)C(=O)N[C@@H](CCCNC(=N)N)C(=O)N1CCC[C@H]1C(=O)N[C@@H](CCCNC(=N)N)C(=O)N1CCC[C@H]1C(=O)N1CCC[C@H]1C(=O)N[C@@H](Cc1ccc(O)cc1)C(=O)N[C@@H](CC(C)C)C(=O)NCCCCCCCCCC[P+](c1ccccc1)(c1ccccc1)c1ccccc1 [Compound 4, Bac(1–10, R/Y)-C10-TPP] (H-RRIRPRPPYL-X2; N-terminus assumed) | almost completely | showed bacterial-growth-inhibiting activity | 100 µM | the same | rapid decrease in the membrane potential |  |  |  | 
2 | CC[C@H](C)[C@H](NC(=O)[C@@H](CCCNC(=N)N)NC(=O)[C@H](CCCNC(=N)N)NC(=O)[C@@H]1CCCN1C(=O)[C@@H]1CCCN1C(=O)[C@H](CCCNC(=N)N)NC(=O)[C@@H]1CCCN1C(=O)[C@H](CCCNC(=N)N)NC(=O)[C@@H]1CCCN1C(=O)[C@H](CC(C)C)NC(=O)[C@H](Cc1ccc(O)cc1)NC(=O)[C@@H]1CCCN1C(=O)[C@@H]1CCCN1C(=O)[C@H](CCCCN)NC(=O)[C@H](CC(=O)O)NC(=O)[C@@H](N)C(C)C)C(=O)N[C@@H](Cc1ccc(O)cc1)C(=O)N[C@@H](CC(N)=O)C(=O)N[C@H](CCCNC(=N)N)C(N)=O [Onc112, reference compound] (H-VDKPPYLPRPRPPR[dR]IYN[dR]-NH2; N-terminus assumed) | almost completely | showed activity against resistant E. coli bacteria comparable to that demonstrated in the wild type | >90 µM |  |  | no significant difference in the growth inhibition | a decrease in the antibacterial activity | approximately eight | 
3 | CC[C@H](C)[C@H](NC(=O)[C@H](CCCNC(=N)N)NC(=O)[C@@H](N)CCCNC(=N)N)C(=O)N[C@@H](CCCNC(=N)N)C(=O)N1CCC[C@H]1C(=O)N[C@@H](CCCNC(=N)N)C(=O)N1CCC[C@H]1C(=O)N1CCC[C@H]1C(=O)N[C@@H](Cc1ccc(O)cc1)C(=O)N[C@@H](CC(C)C)C(=O)NCC[P+](c1ccccc1)(c1ccccc1)c1ccccc1 [Compound 3, Bac(1–10, R/Y)-C2-TPP] (H-RRIRPRPPYL-X1; N-terminus assumed) | almost completely | showed bacterial-growth-inhibiting activity | >100 µM |  |  |  | a decrease in the antibacterial activity | four | a decrease in the membrane potential
